Columns and labels:
[1] = tested on: ERK phosphorylation in KRAS^G12D mutant cells (AGS); assay: AGS ERK phosphorylation inhibition experiment; type: cell-based; conditions: 1 hour compound, hEGF 10 minutes
Method: (§1) KRAS^G12D mutant cells (such as GP2D, AGS, etc.) were seeded in a 384-well plate and cultured overnight in a 37° C., 5% CO2 incubator.
(§2) 200 nL of diluted compound was added with Echo 500 to a final DMSO concentration of 0.5%, and cultured in a 37° C., 5% CO2 incubator for 1 hour. Then hEGF was added for acting for 10 minutes.
(§3) The culture medium was discarded, and then cell fixative was added to fix the cells.
(§4) The cells were washed once with PBS, and then incubated with cold 100% methanol.
(§5) Methanol was removed and the cells were washed with PBS.
(§6) PBS was removed, and each well was added with Li-Cor blocking buffer, and blocked at room temperature for 1 hr.
(§7) The blocking solution was removed, and primary antibody mixture was added to each well, and incubated at […] 4° C. overnight.
(§8) The primary antibody mixture was removed, and the cells were washed by adding PBST for 3 times.
(§9) Secondary antibody mixture was added and incubated at room temperature in the dark for 45 min.
(§10) The secondary antibody mixture was removed, and the cells were washed by adding PBST for 3 times. Finally, PBST was suctioned out, and the plate was centrifuged upside down at 1000 rpm for 1 min.
(§11) The plate was read by Odyssey CLx.

[2] = tested on: ERK phosphorylation in KRAS^G12D mutant cells (GP2D); assay: GP2D ERK phosphorylation inhibition experiment; type: cell-based; conditions: 1 hour compound, hEGF 10 minutes
Method: as §1, §2, §3, §4, §5, §6, §7, §8, §9, §10, §11

GP2D = assay: Cell proliferation inhibition, GP2D (CellTiter-Glo 3D, 7 days); type: cell-based; conditions: 168 h
Method in brief: (§12)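 Cells exposed to compound (final DMSO 0.5%) in duplicate for 7 days at 37 °C, 5% CO2, then CellTiter-Glo 3D added with 20 min shaking and 2 h dark incubation before luminescence. Inhibition normalized to medium and blank controls; IC50, minimum and maximum inhibition from curve fits.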

AsPC-1 = assay: Cell proliferation inhibition, AsPC-1 (CellTiter-Glo 3D, 7 days); type: cell-based; conditions: Homo sapiens, ASPC1, 168 h; AsPC-1, 7 days
Method in brief: as §12

AGS = assay: Cell proliferation inhibition, AGS (CellTiter-Glo 3D, 7 days); type: cell-based; conditions: Homo sapiens, 168 h
Method: • (a) Resuscitating cells in T75 cell culture flask: • (b) When the cell confluence reaches 80-90%, subculturing the cells.
The diluted test compound was added to a 384-well cell culture plate with a nanoliter pipetting system, and duplicate wells were set up. An equal volume of culture medium was added to the positive control group; and an equal volume of DMSO was added to the negative control group, then centrifugation was conducted at 1000 rpm for 1 min at room temperature.
Cells were inoculated into a) 384-well culture plate, with an equal volume of cells added to the negative control group, and only an equal volume of culture medium added to the positive control group. The plate was centrifuged at 1000 rpm for 1 min at room temperature, and the final DMSO concentration of the compound was 0.5% at last. The plate was placed in a 37° C., 5% CO2 constant temperature incubator for 7 days.
20 μL/well of CellTiter-Glo® 3D to b) was added to 384-well cell culture plate, and the plate was shook at 320 rpm for 20 min in the dark, and incubated at room temperature in the dark for 2 hrs.
The luminescence value was read using an Envision multi-functional microplate reader.
The inhibition rate (IR) of the test compound was calculated using the following formula: IR (%)=(1−(RLU compound−RLU blank control)/(RLU meidum control−RLU blank control))*100%. The inhibition rates of different concentrations of compounds were calculated in Excel, and then the inhibition curves were plotted and the related parameters (including the minimum inhibition rate, maximum inhibition rate and IC50) were calculated using GraphPad Prism software.

in vivo = conditions: male, ICR, mouse, po, 30 mg/kg
Method: (§13) Male ICR mice, weighing 22-24 g, were fasted overnight and orally administered with 30 mg/kg of a solution of the compound of the present invention or the control compound [10% DMSO+60% PEG400+30% aqueous solution]. Blood was collected at 0.25, 0.5, 1.0, 2.0, 4.0, 6.0, 8.0, 12.0 and 24 h after administration of the compound of the present invention respectively, and the concentration of the compound of the present invention or the control compound in plasma was determined by LC/MS/MS.

[3] = Pharmacokinetic test evaluation in mice, oral; conditions: male ICR mice, oral 30 mg/kg, plasma
Method: as §13

Compound | IC50 ([1]; Homo sapiens) | IC50 (GP2D) | IC50 (AsPC-1) | IC50 (AGS) | other results
C#Cc1c(F)ccc2cc(O)cc(-c3ncc4c(N5C[C@H]6CC[C@@H](C5)N6)nc(OCC56CCCN5CC5(C6)CC5(F)F)nc4c3F)c12 (single isomer, unassigned) [Example 16A] |  |  |  |  | IC50 [1]: 10.6 nM
C#Cc1c(F)ccc2cc(O)cc(-c3ncc4c(N5C[C@H]6CC[C@@H](C5)N6)nc(OCC56CCCN5CC5(C6)CC5(F)F)nc4c3F)c12 (single isomer, unassigned) [Example 16B] |  |  |  |  | IC50 [1]: 3.34 nM
C#Cc1c(F)ccc2cc(O)cc(-c3ncc4c(N5C[C@H]6CC[C@@H](C5)N6)nc(OC[C@]56CCCN5[C@H](COC)CC6)nc4c3F)c12 [Example 1 Isomer 1A, 4-(4-((1R,5S)-3,8-diazabicyclo[3.2.1]octan-3-yl)-8-fluoro-2-((3S,7aR)-(3-(methoxymethyl)tetrahydro-1H-pyrrolizin-7a(5H)-yl)methoxy)pyridino[4,3-d]pyrimidin-7-yl)-5-ethynyl-6-fluoronaphthalen-2-ol] | 9.67 nM |  |  |  | IC50 [2]: 2.6 nM
C#Cc1c(F)ccc2cc(O)cc(-c3ncc4c(N5C[C@H]6CC[C@@H](C5)N6)nc(OC[C@@]56CCCN5[C@@H](COC)CC6)nc4c3F)c12 [Example 1 Isomer 1B, 4-(4-((1R,5S)-3,8-diazabicyclo[3.2.1]octan-3-yl)-8-fluoro-2-((3R,7aS)-(3-(methoxymethyl)tetrahydro-1H-pyrrolizin-7a(5H)-yl)methoxy)pyridino[4,3-d]pyrimidin-7-yl)-5-ethynyl-6-fluoronaphthalen-2-ol] | 3.76 nM |  |  |  | IC50 [2]: 2.1 nM
C#Cc1c(F)ccc2cc(O)cc(-c3ncc4c(N5C[C@H]6CC[C@@H](C5)N6)nc(OC[C@]56CCCN5[C@@H](COC)CC6)nc4c3F)c12 [Example 1 Isomer 2A, 4-(4-((1R,5S)-3,8-diazabicyclo[3.2.1]octan-3-yl)-8-fluoro-2-((3R,7aR)-(3-(methoxymethyl)tetrahydro-1H-pyrrolizin-7a(5H)-yl)methoxy)pyridino[4,3-d]pyrimidin-7-yl)-5-ethynyl-6-fluoronaphthalen-2-ol] | 19 nM |  |  |  | 
C#Cc1c(F)ccc2cc(O)cc(-c3ncc4c(N5C[C@H]6CC[C@@H](C5)N6)nc(OC[C@@]56CCCN5[C@H](COC)CC6)nc4c3F)c12 [Example 1 Isomer 2B, 4-(4-((1R,5S)-3,8-diazabicyclo[3.2.1]octan-3-yl)-8-fluoro-2-((3S,7aS)-(3-(methoxymethyl)tetrahydro-1H-pyrrolizin-7a(5H)-yl)methoxy)pyridino[4,3-d]pyrimidin-7-yl)-5-ethynyl-6-fluoronaphthalen-2-ol] | 139 nM |  |  |  | 
C#Cc1c(F)ccc2cc(O)cc(-c3ncc4c(N5CC6CCC(C5)N6)nc(OCC56CCCN5CC5(CC5)C6)nc4c3F)c12 [Example 9, 4-(4-(1R,5S)-3,8-diazabicyclo[3.2.1]octan-3-yl)-2-(dihydro-1′H,3′H-spiro[1,2′-pyrrolizin]-7a′(5′H)-yl)methoxy)-8-fluoropyridino[4,3-d]pyrimidin-7-yl)-5-ethynyl-6-fluoro-naphthalen-2-ol] | 8.2 nM |  |  |  | 
Nc1cc(Cl)c(C(F)(F)F)c(-c2ncc3c(N4C[C@H]5CC[C@@H](C4)N5)nc(OC[C@@]45CCCN4C[C@@]4(CC4(F)F)C5)nc3c2F)c1 [Example 27, 3-(4-((1R,5S)-3,8-diazabicyclo[3.2.1]octan-3-yl)-2-(((1S,7a'S)-2,2-difluorodihydro-1′H,3′H-spiro[cyclopropan-1,2′-pyrrolizin]-7a′(5′H)-yl)methoxy)-8-fluoropyridino[4,3-d]pyrimidin-7-yl)-5-chloro-4-(trifluoromethyl)aniline] |  | 0.38 nM | 4.14 nM | 5.24 nM | AUC(0-inf) (in vivo): 5650 ng·h/mL; AUC(0-t) (in vivo): 5090 ng·h/mL; Cmax (in vivo): 953 ng/mL; Tmax (in vivo): 0.25 h; half-life (in vivo): 9.32 h
N#Cc1c(N)ccc(Cl)c1-c1ncc2c(N3C[C@H]4CC[C@@H](C3)N4)nc(OC[C@@]34CCCN3C[C@@]3(CC3(F)F)C4)nc2c1F [Example 51, 2-(4-((1R,5S)-3,8-diazabicyclo[3.2.1]octan-3-yl)-2-(((1S,7a'S)-2,2-difluorodihydro-1′H,3′H-spiro[cyclopropan-1,2′-pyrrolizin]-7a′(5′H)-yl)methoxy)-8-fluoropyridino[4,3-d]pyrimidin-7-yl)-6-amino-3-chlorobenzonitrile] |  | > 100 nM | > 1000 nM | > 1000 nM | 
Cc1c(N)cnc(C(F)(F)F)c1-c1ncc2c(N3C[C@H]4CC[C@@H](C3)N4)nc(OC[C@@]34CCCN3C[C@@]3(CC3(F)F)C4)nc2c1F [Example 54, 5-(4-((1R,5S)-3,8-diazabicyclo[3.2.1]octan-3-yl)-2-(((1S,7a'S)-2,2-difluorodihydro-1′H,3′H-spiro[cyclopropan-1,2′-pyrrolizin]-7a′(5′H)-yl)methoxy)-8-fluoropyridino[4,3-d]pyrimidin-7-yl)-4-methyl-6-(trifluoromethyl)pyridin-3-amine] |  | > 100 nM | > 1000 nM | > 1000 nM | 
C#Cc1c(F)ccc2cc(O)cc(-c3ncc4c(N5CC6CCC(C5)N6)nc(OC[C@@]56CCCN5C[C@H](F)C6)nc4c3F)c12 [MRTX1133, reference compound] |  | 1.28 nM | 6.77 nM | 5.15 nM | AUC0-∞ [3]: BLOQ; AUC(0-t) [3]: BLOQ; Cmax [3]: BLOQ

From patent US20250206758A1, “SUBSTITUTED BRIDGED RING INHIBITOR, PREPARATION METHOD THEREFOR AND APPLICATION THEREOF” (SUZHOU ZELGEN BIOPHARMACEUTICALS CO., LTD., priority 2022, published 2025)
